We go through 20 molecules from patent US8263598B2, “Substituted sulfonamide compounds” (Gruenenthal GmbH, priority 2008, dated 2012).

For assay [1], the target named is T1, human B1R receptor (hB1R) (Homo sapiens, UniProt P46663).
T1 construct: host or cells: CHO K1 cells
T1 sequence (P46663 1-353): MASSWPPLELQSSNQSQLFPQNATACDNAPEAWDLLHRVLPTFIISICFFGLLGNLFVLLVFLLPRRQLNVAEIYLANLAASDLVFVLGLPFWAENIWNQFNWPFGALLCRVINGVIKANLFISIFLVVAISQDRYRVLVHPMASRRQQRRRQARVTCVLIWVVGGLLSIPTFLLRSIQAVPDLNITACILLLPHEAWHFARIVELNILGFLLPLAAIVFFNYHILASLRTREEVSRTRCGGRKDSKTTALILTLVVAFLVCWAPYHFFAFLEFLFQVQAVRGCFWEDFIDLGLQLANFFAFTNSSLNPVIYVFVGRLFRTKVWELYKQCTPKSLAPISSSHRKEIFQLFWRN
Briefly: FLIPR Ca2+ assay on human bradykinin 1 receptor (CHO K1 hB1R cells). The format is cell-based. As to conditions: test substance 10 μM; CHO K1 cells with human B1R gene; agonist Lys-Des-Arg9-bradykinin 0.5 nM; compared to maximum achievable inhibition. The method, boiled down:
(§1)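 Values are percent inhibition of agonist-evoked Ca²⁺ influx, measured by Fluo-4 fluorescence peak in FLIPR relative to maximum achievable inhibition. Compound at 10 μM was preincubated 10 min on B1R-transfected CHO K1 cells before challenge with 0.5 nM Lys-Des-Arg9-bradykinin (human) or 100 nM Des-Arg9-bradykinin (rat).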

Assay [2] has as its target T2, B1R receptor of rats (rB1R) (Rattus norvegicus, UniProt P97583).
T2 construct: host or cells: CHO K1 cells
T2 sequence (P97583 1-337): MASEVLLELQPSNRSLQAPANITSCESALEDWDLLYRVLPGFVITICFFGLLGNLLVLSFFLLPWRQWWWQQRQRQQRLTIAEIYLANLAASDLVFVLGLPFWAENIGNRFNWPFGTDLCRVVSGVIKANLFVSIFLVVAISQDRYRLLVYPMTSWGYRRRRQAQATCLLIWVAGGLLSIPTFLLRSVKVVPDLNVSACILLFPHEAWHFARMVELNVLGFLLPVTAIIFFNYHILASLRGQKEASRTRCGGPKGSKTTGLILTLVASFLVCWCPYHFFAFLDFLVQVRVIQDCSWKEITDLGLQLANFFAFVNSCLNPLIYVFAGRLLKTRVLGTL
In words: FLIPR Ca2+ assay on rat bradykinin 1 receptor (CHO K1 rB1R cells). The format is cell-based. To be noted: test substance 10 μM; CHO K1 cells with B1R gene of rats; agonist Des-Arg9-bradykinin 100 nM; compared to maximum achievable inhibition. A digest of the protocol:
as §1

The structures appear in SMILES notation.

Take `COc1cc(C)c(S(=O)(=O)N(CCOCC(=O)N2CCn3cccc3C2c2ccc(Cl)nc2)CC(C)C)c(C)c1C` (stereo not shown) [Example 20, N-(2-(2-(1-(6-chloropyridin-3-yl)-3,4-dihydropyrrolo[1,2-a]pyrazin-2(1H)-yl)-2-oxoethoxy)ethyl)-N-isobutyl-4-methoxy-2,3,6-trimethylbenzenesulfonamide]: the figures for the inhibition at 10 µM in assay [1] and in assay [2] were 84% and 98%, respectively.
`COc1c(C)cc(S(=O)(=O)N(C)CCOCC(=O)N2CCn3cccc3C2C)c(C)c1C` (stereo not shown) [Example 28, 4-methoxy-N,2,3,5-tetramethyl-N-(2-(2-(1-methyl-3,4-dihydropyrrolo[1,2-a]pyrazin-2(1H)-yl)-2-oxoethoxy)ethyl)benzenesulfonamide]: the figures for the inhibition at 10 µM in assay [1] and in assay [2] were 37% and 81%, respectively.
As for `COc1cc(C)c(S(=O)(=O)N(CCOCC(=O)N2CCn3ccnc3C2)Cc2ccccc2)c(C)c1` [Example 46, N-benzyl-N-(2-(2-(5,6-dihydroimidazo[1,2-a]pyrazin-7(8H)-yl)-2-oxoethoxy)ethyl)-4-methoxy-2,6-dimethylbenzenesulfonamide], the inhibition at 10 µM in assay [1] is 41%; in assay [2] it was 96%.
In the case of `COc1cc(C)c(S(=O)(=O)N(C)CCOCC(=O)N2CCn3cccc3C2C(C)(C)C)c(C)c1` (stereo not shown) [Example 52, N-(2-(2-(1-tert-butyl-3,4-dihydropyrrolo[1,2-a]pyrazin-2(1H)-yl)-2-oxoethoxy)ethyl)-4-methoxy-N,2,6-trimethylbenzenesulfonamide], the values for the inhibition at 10 µM in assay [1] and in assay [2] were 100% and 98%, respectively.
As to `COc1cccc(C2c3cccn3CCN2C(=O)COCCN(CC(C)C)S(=O)(=O)c2c(C)cc(OC)c(C)c2C)c1` (stereo not shown) [Example 26, N-isobutyl-4-methoxy-N-(2-(2-(1-(3-methoxyphenyl)-3,4-dihydropyrrolo[1,2-a]pyrazin-2(1H)-yl)-2-oxoethoxy)ethyl)-2,3,6-trimethylbenzenesulfonamide], the inhibition at 10 µM came out at 34% in assay [1] and 99% in assay [2].
On to `COc1cc(C)c(S(=O)(=O)N(C)CCOCC(=O)N2CCn3cccc3C2C)c(C)c1C` (stereo not shown) [Example 80, 4-methoxy-N,2,3,6-tetramethyl-N-(2-(2-(1-methyl-3,4-dihydropyrrolo[1,2-a]pyrazin-2(1H)-yl)-2-oxoethoxy)ethyl)benzenesulfonamide], for which the inhibition at 10 µM is 99% in assay [1] and 97% in assay [2].
Take `COc1cc(C)c(S(=O)(=O)N(CCOCC(=O)N2CCn3cccc3C2C(C)(C)C)Cc2ccccc2)c(C)c1` (stereo not shown) [Example 44, N-benzyl-N-(2-(2-(1-tert-butyl-3,4-dihydropyrrolo[1,2-a]pyrazin-2(1H)-yl)-2-oxoethoxy)ethyl)-4-methoxy-2,6-dimethylbenzenesulfonamide]: the inhibition at 10 µM in assay [1] turned out to be 88%; in assay [2], 98%.
Regarding `COc1cc(C)c(S(=O)(=O)N(CCOCC(=O)N2CCn3c(CN4CCCCC4)ccc3C2c2ccccc2)CC(C)C)c(C)c1C` (stereo not shown) [Example 93, N-isobutyl-4-methoxy-2,3,6-trimethyl-N-(2-(2-oxo-2-(1-phenyl-6-(piperidin-1-ylmethyl)-3,4-dihydropyrrolo[1,2-a]pyrazin-2(1H)-yl)ethoxy)ethyl)benzene-sulfonamide], the inhibition at 10 µM was found to be 103% in assay [1] and 102% in assay [2].
As to `O=C(CC(NS(=O)(=O)c1ccc2ccccc2c1)c1ccccc1)N1CCn2c(Cc3cccnc3)ccc2C1` (stereo not shown) [Example 176, N-(3-Oxo-1-phenyl-3-(6-(pyridin-3-ylmethyl)-3,4-dihydropyrrolo[1,2-a]pyrazin-2(1H)-yl)propyl)naphthalene-2-sulfonamide], the results for the inhibition at 10 µM in assay [1] and in assay [2] were 45% and 87%, respectively.
In the same order, the values of `COc1cc(C)c(S(=O)(=O)N(CCOCC(=O)N2CCn3c(CN(C)C)ccc3C2Cc2ccccc2)Cc2ccccc2)c(C)c1C` (stereo not shown) [Example 118, N-benzyl-N-(2-(2-(1-benzyl-6-((dimethylamino)methyl)-3,4-dihydropyrrolo[1,2-a]pyrazin-2(1H)-yl)-2-oxoethoxy)ethyl)-4-methoxy-2,3,6-trimethylbenzene-sulfonamide] are 96% and 96%.
As to `COc1cc(C)c(S(=O)(=O)N(CCOCC(=O)N2CCn3cccc3C2c2cccs2)CC(C)C)c(C)c1C` (stereo not shown) [Example 25, N-isobutyl-4-methoxy-2,3,6-trimethyl-N-(2-(2-oxo-2-(1-(thiophen-2-yl)-3,4-dihydropyrrolo[1,2-a]pyrazin-2(1H)-yl)ethoxy)ethyl)benzenesulfonamide], the inhibition at 10 µM amounted to 55% in assay [1] and 98% in assay [2].
In the case of `COc1cc(C)c(S(=O)(=O)N(C)CCOCC(=O)N2CCn3c(CCc4ccncc4)ccc3C2)c(C)c1` [Example 172, 4-Methoxy-N,2,6-trimethyl-N-(2-(2-oxo-2-(6-(2-(pyridin-4-yl)ethyl)-3,4-dihydropyrrolo[1,2-a]pyrazin-2(1H)-yl)ethoxy)ethyl)benzenesulfonamide], the inhibition at 10 µM turned out to be 100% in assay [1] and 97% in assay [2].
Regarding `COc1cc(C)c(S(=O)(=O)N(C)CCOCC(=O)N2CCn3c(CN4CCOCC4)ccc3C2)c(C)c1` [Example 7, 4-methoxy-N,2,6-trimethyl-N-(2-(2-(6-(morpholinomethyl)-3,4-dihydropyrrolo[1,2-a]pyrazin-2(1H)-yl)-2-oxoethoxy)ethyl)benzenesulfonamide], the values for the inhibition at 10 µM in assay [1] and in assay [2] were 101% and 99%, respectively.
With `COc1cc(C)c(S(=O)(=O)N(CCOCC(=O)N2CCn3c(CN(C)C)ccc3C2CCc2ccccc2)Cc2ccccc2)c(C)c1C` (stereo not shown) [Example 119, N-benzyl-N-(2-(2-(6-((dimethylamino)methyl)-1-phenethyl-3,4-dihydropyrrolo-[1,2-a]pyrazin-2(1H)-yl)-2-oxoethoxy)ethyl)-4-methoxy-2,3,6-trimethylbenzene-sulfonamide], the inhibition at 10 µM in assay [1] amounted to 52%; in assay [2], 54%.
As for `COc1cc(C)c(S(=O)(=O)N(C)CCOCC(=O)N2CCn3cccc3C2c2cccc(F)c2)c(C)c1C` (stereo not shown) [Example 87, N-(2-(2-(1-(3-fluorophenyl)-3,4-dihydropyrrolo[1,2-a]pyrazin-2(1H)-yl)-2-oxoethoxy)ethyl)-4-methoxy-N,2,3,6-tetramethylbenzenesulfonamide], the results for the inhibition at 10 µM in assay [1] and in assay [2] were 101% and 100%, respectively.
Take `COc1c(C)cc(S(=O)(=O)N(C)CCOCC(=O)N2CCn3cccc3C2c2ccc(C)c(C)c2)c(C)c1C` (stereo not shown) [Example 34, N-(2-(2-(1-(3,4-dimethylphenyl)-3,4-dihydropyrrolo[1,2-a]pyrazin-2(1H)-yl)-2-oxoethoxy)ethyl)-4-methoxy-N,2,3,5-tetramethylbenzenesulfonamide]: the inhibition at 10 µM amounted to 58% in assay [1] and 42% in assay [2].
For the molecule `O=C(CC(NS(=O)(=O)c1ccc2ccccc2c1)c1ccccc1)N1CCn2c(Cc3ccncc3)ccc2C1` (stereo not shown) [Example 169, N-(3-Oxo-1-phenyl-3-(6-(pyridin-4-ylmethyl)-3,4-dihydropyrrolo[1,2-a]pyrazin-2(1H)-yl)propyl)naphthalene-2-sulfonamide], the inhibition at 10 µM stood at 78% in assay [1] and 98% in assay [2].
`O=C(CC(NS(=O)(=O)c1ccc2ccccc2c1)c1ccccc1)N1CCn2c(ccc2-c2cccnc2)C1` (stereo not shown) [Example 167, N-(3-Oxo-1-phenyl-3-(6-(pyridin-3-yl)-3,4-dihydropyrrolo[1,2-a]pyrazin-2(1H)-yl)propyl)naphthalene-2-sulfonamide]: the inhibition at 10 µM in assay [1] was 32%; in assay [2], 70%.
For the molecule `COc1cc(C)c(S(=O)(=O)N(CCOCC(=O)N2CCn3c(CN(C)C)ccc3C2CCc2ccccc2)CC(C)C)c(C)c1C` (stereo not shown) [Example 96, N-(2-(2-(6-((dimethylamino)methyl)-1-phenethyl-3,4-dihydropyrrolo[1,2-a]pyrazin-2(1H)-yl)-2-oxoethoxy)ethyl)-N-isobutyl-4-methoxy-2,3,6-trimethyl-benzenesulfonamide], the inhibition at 10 µM in assay [1] was determined as 102%; in assay [2], 101%.
For `Cc1cc(C)c(S(=O)(=O)N(C)CCOCC(=O)N2CCn3cccc3C2C(C)(C)C)c(C)c1` (stereo not shown) [Example 65, N-(2-(2-(1-tert-butyl-3,4-dihydropyrrolo[1,2-a]pyrazin-2(1H)-yl)-2-oxoethoxy)ethyl)-N,2,4,6-tetramethylbenzenesulfonamide], the inhibition at 10 µM in assay [1] came out at 101%; in assay [2], 99%.

By inhibition is commonly meant the change of the read-out against control, counted positive when it falls.
